Source: patent publication US20260083851A1 (AVILAR THERAPEUTICS, INC., priority 2022, published 2026)

Biological target: T1, ASGP receptor (biotinylated ASGPR) (Homo sapiens, UniProt P07306)
T1 construct: biotin (biotinylated)
T1 sequence (P07306 1-291): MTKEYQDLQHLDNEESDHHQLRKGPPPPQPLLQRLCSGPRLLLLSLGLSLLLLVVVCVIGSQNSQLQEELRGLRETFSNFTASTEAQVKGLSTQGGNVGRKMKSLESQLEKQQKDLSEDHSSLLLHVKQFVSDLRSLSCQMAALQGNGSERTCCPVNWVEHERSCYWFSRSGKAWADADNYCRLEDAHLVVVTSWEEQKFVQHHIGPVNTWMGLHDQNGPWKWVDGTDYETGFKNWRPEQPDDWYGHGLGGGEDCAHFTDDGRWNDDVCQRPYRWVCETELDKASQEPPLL
Assay type: binding
Conditions: SPR, Biacore 8K, 25° C.; Table 1A; read-out: ASGPR KD

Kd	SMILES
< 10 µM	O[C@@H]1[C@H](O)[C@@H](Nc2cncc(C(F)(F)F)n2)CO[C@@H]1COCCOCCNc1cnccn1 [A56, (2R,3R,4R,5S)-2-((2-(2-(pyrazin-2-ylamino)ethoxy)ethoxy)methyl)-5-((6-(trifluoromethyl)pyrazin-2-yl)amino)tetrahydro-2H-pyran-3,4-diol]
< 10 µM	O=C(NC[C@H]1OC[C@H](Nc2cncc(C(F)(F)F)n2)[C@@H](O)[C@H]1O)c1cccc(F)c1 [A24, N-(((2R,3R,4R,5S)-3,4-dihydroxy-5-((6-(trifluoromethyl)pyrazin-2-yl)amino)tetrahydro-2H-pyran-2-yl)methyl)-3-fluorobenzamide]
< 10 µM	OC[C@H]1NC[C@H](Nc2cncc(C(F)(F)F)n2)[C@@H](O)[C@H]1O [A118]
< 10 µM	O=C(NC[C@H]1OC[C@H](Nc2cncc(C(F)(F)F)n2)[C@@H](O)[C@H]1O)c1cncnc1 [A25, N-(((2R,3R,4R,5S)-3,4-dihydroxy-5-((6-(trifluoromethyl)pyrazin-2-yl)amino)tetrahydro-2H-pyran-2-yl)methyl)pyrimidine-5-carboxamide]
< 10 µM	COC(=O)c1cnc(C(=O)NC[C@H]2OC[C@H](Nc3cncc(C(F)(F)F)n3)[C@@H](O)[C@H]2O)nc1 [A72, methyl 2-((((2R,3R,4R,5S)-3,4-dihydroxy-5-((6-(trifluoromethyl)pyrazin-2-yl)amino)tetrahydro-2H-pyran-2-yl)methyl)carbamoyl)pyrimidine-5-carboxylate]
< 10 µM	[N-]=[N+]=NCCCCCC(=O)NC(COCCC(=O)NCCOCCOCCOCCOC[C@H]1OC[C@H](Nc2cncc(C(F)(F)F)n2)[C@@H](O)[C@H]1O)(COCCC(=O)NCCOCCOCCOCCOC[C@H]1OC[C@H](Nc2cncc(C(F)(F)F)n2)[C@@H](O)[C@H]1O)COCCC(=O)NCCOCCOCCOCCOC[C@H]1OC[C@H](Nc2cncc(C(F)(F)F)n2)[C@@H](O)[C@H]1O [A87, 3,3′-((2-(6-azidohexanamido)-2-(1-((2R,3R,4R,5S)-3,4-dihydroxy-5-((6-(trifluoromethyl)pyrazin-2-yl)amino)tetrahydro-2H-pyran-2-yl)-15-oxo-2,5,8,11,18-pentaoxa-14-azanonadecan-19-yl)propane-1,3-diyl)bis(oxy))bis(N-(1-((2R,3R,4R,5S)-3,4-dihydroxy-5-((6-(trifluoromethyl)pyrazin-2-yl)amino)tetrahydro-2H-pyran-2-yl)-2,5,8,11-tetraoxatridecan-13-yl)propanamide)]

Same assay, conditions: SPR, Biacore 8K, 25° C.; Table 1C, numeric bound; read-out: ASGPR KD

Kd	SMILES
> 30 µM	CC#Cc1cccc(N[C@H]2CO[C@H](CO)[C@H](O)[C@@H]2O)n1 [A189, (2R,3R,4R,5S)-2-(hydroxymethyl)-5-((6-(prop-1-yn-1-yl)pyridin-2-yl)amino)tetrahydro-2H-pyran-3,4-diol]

Same assay, conditions: SPR, Biacore 8K, 25° C.; Table 1C; read-out: ASGPR KD

Kd	SMILES
< 10 µM	O=C(O)c1ccc(CN2CCN(C[C@H]3OC[C@H](Nc4cncc(C(F)(F)F)n4)[C@@H](O)[C@H]3O)CC2)cc1 [A199, 4-((4-(((2R,3R,4R,5S)-3,4-dihydroxy-5-((6-(trifluoromethyl)pyrazin-2-yl)amino)tetrahydro-2H-pyran-2-yl)methyl)piperazin-1-yl)methyl)benzoic acid]
< 10 µM	C[C@H]1O[C@@H](c2ccc(N3CCNCC3)cc2)[C@H](Oc2cccc(C(F)(F)F)n2)[C@@H](O)[C@H]1O [A303]
< 10 µM	CC(C)(C)OC(=O)N1CCC2(CC1)CN(C[C@H]1OC[C@H](Oc3cccc(C(F)(F)F)n3)[C@@H](O)[C@H]1O)C2 [A267]
< 10 µM	O[C@@H]1[C@H](O)[C@@H](Oc2cccc(C(F)(F)F)n2)CO[C@@H]1CN1CCC1 [A245]
< 10 µM	O[C@@H]1[C@H](O)[C@@H](Oc2cccc(C(F)(F)F)n2)CO[C@@H]1CN1CCN(c2cccnn2)CC1 [A264]
< 10 µM	O[C@@H]1[C@H](O)[C@@H](Nc2cccc(C(F)(F)F)n2)CO[C@@H]1CN1CCCC1 [A240]
< 10 µM	O[C@@H]1[C@H](O)[C@@H](Nc2cncc(C(F)(F)F)n2)CO[C@@H]1c1cn(-c2ccccc2)nn1 [A201, (2R,3R,4R,5S)-2-(1-phenyl-1H-1,2,3-triazol-4-yl)-5-((6-(trifluoromethyl)pyrazin-2-yl)amino)tetrahydro-2H-pyran-3,4-diol]
< 10 µM	CC(C)(C)OC(=O)N1CCC2CN(C[C@H]3OC[C@H](Oc4cccc(C(F)(F)F)n4)[C@@H](O)[C@H]3O)CC2C1 (stereo partly shown) [A271]
< 10 µM	C[C@H]1O[C@H](C#CCO)[C@H](Oc2cccc(C(F)(F)F)n2)[C@@H](O)[C@H]1O [A286]
< 10 µM	O[C@@H]1[C@H](O)[C@@H](Oc2cccc(C(F)(F)F)n2)CO[C@@H]1CN1CCN(c2cccnc2)CC1 [A275]
< 10 µM	O[C@@H]1[C@H](O)[C@@H](Oc2cccc(C(F)(F)F)n2)CO[C@@H]1CSc1ccccn1 [A307]
< 10 µM	C[C@H]1O[C@H](CCCO)[C@H](Oc2cccc(C(F)(F)F)n2)[C@@H](O)[C@H]1O [A318]
< 10 µM	O[C@@H]1[C@@H](Oc2cccc(C(F)(F)F)n2)COC(C(F)(F)c2ccc(Cl)cc2)[C@@H]1O (stereo partly shown) [A306]
< 10 µM	CC[C@H]1O[C@H](C)[C@H](O)[C@H](O)[C@H]1Oc1cccc(C(F)(F)F)n1 [A316]
< 10 µM	O[C@@H]1[C@H](O)[C@@H](Nc2cccc(C(F)(F)F)n2)CO[C@@H]1COc1ncccn1 [A226, (2R,3R,4R,5S)-2-((pyrimidin-2-yloxy)methyl)-5-((6-(trifluoromethyl)pyridine-2-yl)amino)tetrahydro-2H-pyran-3,4-diol]
< 10 µM	O=C1c2occc2CN1C[C@H]1OC[C@H](Oc2cccc(C(F)(F)F)n2)[C@@H](O)[C@H]1O [A290]

Same assay, conditions: SPR, Biacore 8K, 25° C.; Table 1D; read-out: ASGPR KD

Kd	SMILES
10 to 100 µM	O=C(OCc1ccccc1)N1C[C@H](O)[C@H](O)[C@@H]([S@@+]([O-])c2cccc(C(F)(F)F)n2)C1 [A354]
< 10 µM	O=C(O)CCCCC(=O)N1C[C@H](Nc2cncc(C(F)(F)F)n2)[C@@H](O)[C@@H](O)C1 [A408]
< 10 µM	C[C@H]1O[C@H](C(=O)Nc2cn[nH]c2)[C@H](Nc2cccc(C(F)(F)F)n2)[C@@H](O)[C@H]1O [A424]
< 10 µM	O=C(OCc1ccccc1)N1C[C@H](Nc2cccc(C(F)(F)F)n2)[C@@H](O)[C@@H](O)C1 [A390]
< 10 µM	O=C(OCc1ccccc1)N1C[C@H](Oc2cccc(C(F)(F)F)n2)[C@@H](O)[C@@H](O)C1 [A386]
10 to 100 µM	CC(=O)N[C@H]1CN(C(=O)CCCCC(=O)OCc2ccccc2)C[C@H](O)[C@@H]1O [A407]

Same assay, conditions: SPR, Biacore 8K, 25° C.; Table 1E; read-out: ASGPR KD

Kd	SMILES
10 to 100 µM	C[C@H]1O[C@H](COc2cccc(C(F)(F)F)n2)[C@H](O)[C@@H](O)[C@H]1O [A445]
< 10 µM	C[C@H]1O[C@H](COc2cnccn2)[C@H](Oc2cccc(C(F)(F)F)n2)[C@@H](O)[C@H]1O [A449]
< 10 µM	C[C@H]1O[C@H](COc2cccnn2)[C@H](Oc2cccc(C(F)(F)F)n2)[C@@H](O)[C@H]1O [A441]

Same assay, conditions: SPR; Table 2; read-out: ASGPR SPR Binding KD

Kd	SMILES
< 0.1 µM	O=C(CCOCC(COCCC(=O)NC[C@H]1OC[C@H](Nc2cncc(C(F)(F)F)n2)[C@@H](O)[C@H]1O)NCC(=O)N1CCN(Cc2ccc(-c3c[nH]c4ccncc34)c(OCCc3ccc(-c4cccc5ccncc45)cc3)c2)CC1)NC[C@H]1OC[C@H](Nc2cncc(C(F)(F)F)n2)[C@@H](O)[C@H]1O [compound 21]
< 0.1 µM	CC1(C)C(=O)c2ccc(-c3cnc(N4CCN5C(=O)N(CCOCCOCCOCC(=O)NC(COCCC(=O)NCCOCCOCCOCCOC[C@H]6OC[C@H](Nc7nccc(C(F)(F)F)n7)[C@@H](O)[C@H]6O)COCCC(=O)NCCOCCOCCOCCOC[C@H]6OC[C@H](Nc7nccc(C(F)(F)F)n7)[C@@H](O)[C@H]6O)C[C@@H]5C4)nc3)nc2N1Cc1cccnc1C#N [compound 22]
